Measurements from patent publication US10149876B2, “Tripterygium wilfordii extracts to overcome chemotherapy resistance” (WESTERN UNIVERSITY OF HEALTH SCIENCES, priority 2012, dated 2018).
Several values for one entry are separate records, joined by “and”; a condition that tells them apart may be missing. Equal values may be shown once. Read-outs that look alike come from different tables or passages of the source.

Experiments:
K562 cells = assay: SRB cell viability assay, daunorubicin-sensitive K562 cells; format: cell-based, human; conditions: 72 h, background = 0.044; for mean A at 565 nm: no LGT-E pre-treatment; for mean A at 516 nm: pre-treated with 25 μg/ml LGT-E
Experimental: Cell culture of the above cell lines was performed as described in Example 2, except that 5,000, rather than 3,000 cells were plated per well for the K562, K562/Dox, BT474, SkBr3 lines.
Table 17 also contains the serially-diluted concentrations of drugs that each cell line was tested against.
Table 36 reports the cell viability data relating to pre-treatment with LTG-E prior to daunorubicin treatment. Table 37 reports control data obtained from cells that were not pre-treated with LGT-E prior to daunorubicin treatment. FIG. 15 summarizes the data of Tables 36 and 37 in a graphical format.

DU145-TxR cells = assay: SRB cell viability assay, docetaxel-resistant DU145-TxR cells; format: cell-based; conditions: Homo sapiens; for IC50: docetaxel, DU-145-TxR; for viability at 1 pM / viability at 0.0001 µM / viability at 0.000333 µM / viability at 0.001 µM / viability at 0.00333 µM / viability at 0.01 µM / viability at 0.0333 µM / viability at 0.1 µM: read-out: % viable, DU145-TxR; for viability at 1 pM: docetaxel 0.001 nM 72 h; for viability at 0.0001 µM: docetaxel 0.1 nM 72 h; for viability at 0.000333 µM: docetaxel 0.333 nM 72 h; for viability at 0.001 µM: docetaxel 1 nM 72 h; for viability at 0.00333 µM: docetaxel 3.33 nM 72 h; for viability at 0.01 µM: docetaxel 10 nM 72 h; for viability at 0.0333 µM: docetaxel 33.3 nM 72 h; for viability at 0.1 µM: docetaxel 100 nM 72 h
Experimental: Using the methods described in Example 2, the chemosensitizing effect of LGT-E pretreatment on docetaxel-treated DU145-TrX cells was studied. […] The DU145-TxR cells were plated at passage 38. […] Tables 6, 8, and 10 report control data obtained from DU145-TxR cells that were not pre-treated with LGT-E. FIG. 4 summarizes the data of Tables 5-10 in a graphical format.

[1] = Docetaxel 0.001 nM (so in the source)
[2] = Docetaxel 0.1 nM (so in the source)
[3] = Docetaxel 3.33 nM (so in the source)
[4] = Docetaxel 10 nM (so in the source)
[5] = Docetaxel 33.3 nM (so in the source)
[6] = Docetaxel 100 nM (so in the source)

CC(=O)O[C@@]12CO[C@@H]1C[C@H](O)[C@@]1(C)C(=O)[C@H](O)C3=C(C)[C@@H](OC(=O)[C@H](O)[C@@H](NC(=O)OC(C)(C)C)c4ccccc4)C[C@@](O)([C@@H](OC(=O)c4ccccc4)[C@H]21)C3(C)C [Docetaxel, docetaxel]
mean A at 565 nm (K562 cells; [1]): 2.844
mean A at 516 nm (K562 cells; [1]): 2.860
mean A at 565 nm (K562 cells; [2]): 2.874
mean A at 516 nm (K562 cells; [2]): 2.851
mean A at 565 nm (K562 cells; Docetaxel 0.333 nM (so in the source)): 2.274
mean A at 565 nm (K562 cells; Docetaxel 1 nM (so in the source)): 1.414
mean A at 565 nm (K562 cells; [3]): 1.269
mean A at 516 nm (K562 cells; [3]): 1.331
mean A at 565 nm (K562 cells; [4]): 0.732
mean A at 516 nm (K562 cells; [4]): 1.148
mean A at 565 nm (K562 cells; [5]): 0.300
mean A at 516 nm (K562 cells; [5]): 0.723
mean A at 565 nm (K562 cells; [6]): 0.436
mean A at 516 nm (K562 cells; [6]): 0.553
IC50 (DU145-TxR cells; LGT-E 25 μg/ml pre-treatment, read-out: IC50 of drug when cells pre-treated with Chemosensitizing Agent before drug treatment): 5.76 nM and 0.00465 µg/mL
IC50 (DU145-TxR cells; line of LGT-E 25 μg/ml, read-out: IC50 of drug when cells treated with drug only): > 100 nM and ≥ 0.0808 µg/mL
viability at 1 pM (DU145-TxR cells; LGT-E 25 μg/ml pre-treatment): 100%
viability at 0.0001 µM (DU145-TxR cells; LGT-E 25 μg/ml pre-treatment): 102%
viability at 0.000333 µM (DU145-TxR cells; LGT-E 25 μg/ml pre-treatment): 102%
viability at 0.001 µM (DU145-TxR cells; LGT-E 25 μg/ml pre-treatment): 98.6%
viability at 0.00333 µM (DU145-TxR cells; LGT-E 25 μg/ml pre-treatment): 74.7%
viability at 0.01 µM (DU145-TxR cells; LGT-E 25 μg/ml pre-treatment): 33.5%
viability at 0.0333 µM (DU145-TxR cells; LGT-E 25 μg/ml pre-treatment): 13.7%
viability at 0.1 µM (DU145-TxR cells; LGT-E 25 μg/ml pre-treatment): 6.2%
viability at 1 pM (DU145-TxR cells; LGT-E 50 μg/ml pre-treatment): 100%
viability at 0.000333 µM (DU145-TxR cells; LGT-E 50 μg/ml pre-treatment): 97%
viability at 0.001 µM (DU145-TxR cells; LGT-E 50 μg/ml pre-treatment): 82.1%
viability at 0.00333 µM (DU145-TxR cells; LGT-E 50 μg/ml pre-treatment): 34.4%
viability at 0.01 µM (DU145-TxR cells; LGT-E 50 μg/ml pre-treatment): 11.6%
viability at 0.0333 µM (DU145-TxR cells; LGT-E 50 μg/ml pre-treatment): 5.4%
viability at 0.1 µM (DU145-TxR cells; LGT-E 50 μg/ml pre-treatment): 5.5%
viability at 1 pM (DU145-TxR cells; LGT-E […] pre-treatment): 100%
viability at 0.0001 µM (DU145-TxR cells; LGT-E […] pre-treatment): 98.1%
viability at 0.000333 µM (DU145-TxR cells; LGT-E […] pre-treatment): 96%
viability at 0.001 µM (DU145-TxR cells; LGT-E […] pre-treatment): 98.1%
viability at 0.00333 µM (DU145-TxR cells; LGT-E […] pre-treatment): 91.5%
viability at 0.01 µM (DU145-TxR cells; LGT-E […] pre-treatment): 82.9%
viability at 0.0333 µM (DU145-TxR cells; LGT-E […] pre-treatment): 41%
viability at 0.1 µM (DU145-TxR cells; LGT-E […] pre-treatment): 17.5%
viability at 1 pM (DU145-TxR cells; no pre-treatment (Table 6)): 100%
viability at 0.0001 µM (DU145-TxR cells; no pre-treatment (Table 6)): 103%
viability at 0.000333 µM (DU145-TxR cells; no pre-treatment (Table 6)): 102%
viability at 0.001 µM (DU145-TxR cells; no pre-treatment (Table 6)): 102%
viability at 0.00333 µM (DU145-TxR cells; no pre-treatment (Table 6)): 102%
viability at 0.01 µM (DU145-TxR cells; no pre-treatment (Table 6)): 102%
viability at 0.0333 µM (DU145-TxR cells; no pre-treatment (Table 6)): 101%
viability at 0.1 µM (DU145-TxR cells; no pre-treatment (Table 6)): 94.8%
viability at 1 pM (DU145-TxR cells; no pre-treatment (Table 8)): 100%
viability at 0.0001 µM (DU145-TxR cells; no pre-treatment (Table 8)): 102%
viability at 0.000333 µM (DU145-TxR cells; no pre-treatment (Table 8)): 102%
viability at 0.001 µM (DU145-TxR cells; no pre-treatment (Table 8)): 102%
viability at 0.00333 µM (DU145-TxR cells; no pre-treatment (Table 8)): 102%
viability at 0.01 µM (DU145-TxR cells; no pre-treatment (Table 8)): 100%
viability at 0.0333 µM (DU145-TxR cells; no pre-treatment (Table 8)): 98.1%
viability at 0.1 µM (DU145-TxR cells; no pre-treatment (Table 8)): 91%
viability at 1 pM (DU145-TxR cells; no pre-treatment (Table 10)): 100%
viability at 0.0001 µM (DU145-TxR cells; no pre-treatment (Table 10)): 101%
viability at 0.000333 µM (DU145-TxR cells; no pre-treatment (Table 10)): 97.7%
viability at 0.001 µM (DU145-TxR cells; no pre-treatment (Table 10)): 99.3%
viability at 0.00333 µM (DU145-TxR cells; no pre-treatment (Table 10)): 98.8%
viability at 0.01 µM (DU145-TxR cells; no pre-treatment (Table 10)): 97.2%
viability at 0.0333 µM (DU145-TxR cells; no pre-treatment (Table 10)): 95.4%
viability at 0.1 µM (DU145-TxR cells; no pre-treatment (Table 10)): 90.9%
